Legend:
[1] = system: Plasmodium falciparum; assay: NOVARTIS: Inhibition of Plasmodium falciparum W2 (drug-resistant) proliferation in erythrocyte-based infection assay; assay type: functional, organism-based; settings: Plasmodium falciparum, W2; read-out: EC50
[2] = system: Plasmodium falciparum; assay: NOVARTIS: Inhibition of Plasmodium falciparum 3D7 (drug-susceptible) proliferation in erythrocyte-based infection assay; assay type: functional, organism-based; settings: Plasmodium falciparum, 3D7
[3] = NOVARTIS: Cytotoxicity against human hepatocellular carcinoma cell line (Huh7); assay type: toxicity, cell-based, Huh-7; settings: Huh7 cells (hepatocellular carcinoma cell line)

Structure (SMILES)	EC50 [1]	EC50 [2]	CC50 [3]
Nc1nc(Nc2cccc(Cl)c2)n[nH]1	958 nM	1680 nM	> 100000 nM
Cc1ccc(N=C2NC(=O)/C(=C/c3cc(C)n(-c4cccc([N+](=O)[O-])c4)c3C)S2)cc1	985 nM	353 nM	> 100000 nM
Cc1ccc(-c2cc3c(nn2)-c2ccccc2C3=O)cc1	799 nM	2000 nM	83200 nM
N=C(N)c1ccc(OCCCOc2ccc(C(=N)N)cc2)cc1	59.5 nM	75.5 nM	> 6250 nM
CCn1c2c(c(=N)c3ccccc31)CCC2	954 nM	341 nM	> 100000 nM
CC(C)(C)C1CCc2[nH]c3ccccc3c(=O)c2C1 (configuration not stated)	976 nM	852 nM	> 100000 nM
C(=NNc1nc2ccccc2[nH]1)c1cccc(Oc2ccccc2)c1	962 nM	302 nM	> 100000 nM
CN(C)c1ccc(/C=C/c2nc(=O)c3ccccc3o2)cc1	93.6 nM	130 nM	> 10000 nM
COc1cc2cc(C(=O)Nc3ccccc3)c(N)nc2cc1OC	964 nM	409 nM	> 100000 nM
O=C(Cc1ccccc1)NCc1nnc(SCC(=O)N2N=C(c3cccs3)CC2c2ccc(F)cc2)n1Cc1ccccc1 (configuration not stated)	984 nM	8850 nM	> 100000 nM
CCC(C)NC(=O)c1cc(NC(=O)/C=C/c2ccc([N+](=O)[O-])cc2)ccc1N1CCN(c2ccccc2OC)CC1 (configuration not stated)	54.3 nM	> 1250 nM	5550 nM
O=[N+]([O-])c1ccc(-c2ccc(C=NNc3nc(Nc4ccccc4)nc(Nc4ccccc4)n3)o2)cc1	933 nM	875 nM	> 100000 nM
CC(=O)OC1(C)CC(C)C(=O)C(C(O)CC2CC(=O)NC(=O)C2)C1 (configuration not stated)	58.7 nM	74.7 nM	> 5890 nM
Cc1ccn2c(NC(C)(C)CC(C)(C)C)c(-c3ccccc3OC(=O)c3ccc(Cl)cc3)nc2c1	77.8 nM	1210 nM	> 8270 nM
COc1cc(NCc2cnc(N)nc2N)cc(OC)c1	99.2 nM	330 nM	> 10000 nM
COc1cc(C=C(C#N)c2nc3ccccc3[nH]2)ccc1OCc1ccccc1F	937 nM	1380 nM	> 100000 nM
Cc1ccc2cc(C)c(Nc3ccc(Cl)cc3)nc2c1	570 nM	426 nM	61000 nM
Cn1nc(C(=O)NCc2ccccc2)c2c1CCN(Cc1cccc(O)c1)C2	935 nM	> 6500 nM	> 100000 nM
CN(C)CCCNc1ncnc2c1[nH]c1ccccc12	934 nM	233 nM	> 100000 nM
Oc1ccc(Br)cc1C=NNc1nc2ccccc2[nH]1	504 nM	536 nM	54000 nM
N#Cc1c(-c2ccccc2)cc(N2CCN(C3CCCCC3)CC2)n2c1nc1ccccc12	932 nM	234 nM	> 100000 nM
COc1ccc(C2C(C(=O)Nc3cccc(Cl)c3)c3ccccc3C(=O)N2C2CCCCC2)cc1 (configuration not stated)	930 nM	1550 nM	> 100000 nM
CNCC(O)c1ccc(Cl)c(Cl)c1 (configuration not stated)	99.1 nM	837 nM	> 10000 nM

Structure (SMILES)	EC50 [1]	EC50 [2]	CC50 [3]
CCN1CCC(N2CCC(n3c(Cc4ccccc4OC)nc4cc(F)ccc43)CC2)CC1	350 nM	413 nM	37700 nM
Cc1noc(C)c1S(=O)(=O)N(Cc1ccccc1)CC(O)CN1CCC(NC(=O)c2ccccc2Cl)C1 (configuration not stated)	99.7 nM	256 nM	> 10000 nM
COc1ccc(NC(=O)Cn2ncc3ccccc32)cc1OC	984 nM	> 1250 nM	> 100000 nM
C=CCNC(=O)c1cc2c(=O)n3cccc(C)c3nc2n(CCc2ccccc2)c1=N	982 nM	702 nM	> 100000 nM
C=C[C@H]1CN2CC[C@H]1C[C@@H]2[C@@H](OC(=O)CCCCl)c1ccnc2ccccc12	96.8 nM	49 nM	> 10000 nM
COc1cccc(C2C(C(=O)Nc3ccccc3)=C(C)N=c3sc(=Cc4c[nH]c5ccccc45)c(=O)n32)c1 (configuration not stated)	964 nM	2470 nM	> 100000 nM
CC(=O)N(C1=C(N2CCOCC2)C(=O)c2ccccc2C1=O)c1ccc(C(C)C)c(C)c1	88.1 nM	25.6 nM	9150 nM
CC(C)(C)OC(=O)N1CCC(c2c(C(=O)Nc3cccc(C(F)(F)F)c3)cnn2-c2ccc(F)cc2F)CC1	990 nM	1270 nM	> 100000 nM
CCOc1ccc(Nc2ccnc3cc(Cl)ccc23)cc1	986 nM	956 nM	> 100000 nM
C=CC1CN2CCC1CC2[C@H](c1ccnc2ccccc12)S(=O)(=O)O (some centres not stated)	97.1 nM	152 nM	> 10000 nM
COc1ccccc1C(c1nnnn1Cc1ccc(F)cc1)N1CCN(C)CC1 (configuration not stated)	970 nM	11900 nM	> 100000 nM
Brc1ccc2[nH]c3c(NCCCN4CCOCC4)ncnc3c2c1	957 nM	359 nM	> 98700 nM
COc1cccc(C(=O)C[n+]2cc(-c3ccc(Cl)cc3)n3c2CCC3)c1	975 nM	1740 nM	> 100000 nM
CCCCCCOc1ccc(NC(=O)c2cccs2)cc1	972 nM	396 nM	> 100000 nM
CCOC(=O)c1cc(-c2ccc(C)cc2)n(CCC(=O)Nc2cccc(C(F)(F)F)c2)c1C	327 nM	823 nM	33700 nM
Cc1cc(N2CCN(CC=Cc3ccccc3)CC2)n2c(nc3ccccc32)c1C#N	942 nM	657 nM	> 100000 nM
COc1ccc(C2C(C(=O)Nc3cnc4ccccc4c3)c3ccccc3C(=O)N2Cc2ccc(F)cc2)cc1 (configuration not stated)	941 nM	2170 nM	> 100000 nM
CCN(CC)CCN(Cc1cc2c(C)cc(C)cc2[nH]c1=O)C(=S)NCCCN(C)C	723 nM	1850 nM	> 76300 nM
COc1cncc(-c2cncc(N3CCN(c4ccncc4)CC3)n2)c1	94.7 nM	80.4 nM	> 10000 nM
CCC(Sc1nnc(-c2ccc(C)cc2)c(-c2ccc(C)cc2)n1)C(=O)NCCOC (configuration not stated)	753 nM	477 nM	77000 nM
CCCCCCN(C(=O)COCc1ccccc1)C(CC)c1nc2ccccc2c(=O)n1-c1cccc(Cl)c1 (configuration not stated)	75.8 nM	42.2 nM	> 7770 nM
COc1ccc(C(=O)NC(c2ccccc2Cl)c2cc(Cl)c3cccnc3c2O)cc1 (configuration not stated)	833 nM	2370 nM	> 87000 nM
O=C(Nc1ccccc1)NC1CC2CCCC(C1)N2CCc1ccccc1 (configuration not stated)	98.2 nM	156 nM	> 10000 nM

Structure (SMILES)	EC50 [1]	EC50 [2]	CC50 [3]
C(#Cc1ccccc1)C[N+]1(CCOc2ccccc2)CCCCC1	981 nM	1440 nM	> 100000 nM
CC(C)(C)CC(C)(C)Nc1c(-c2ccccc2OC(=O)c2ccccc2F)nc2ccccn12	97.9 nM	1300 nM	> 10000 nM
Cc1c(/C=C2\SC(=Nc3ccccc3F)N(C3CCCCC3)C2=O)c2ccccc2n1CC(N)=O	961 nM	301 nM	> 100000 nM
O=C(CC1N=C2c3ccccc3N=C(SCc3cccc(F)c3)N2C1=O)NCc1cccs1 (configuration not stated)	960 nM	1190 nM	> 100000 nM
Cc1cc(Cl)ccc1NC(=O)c1ccccc1[N+](=O)[O-]	930 nM	2070 nM	> 100000 nM
O=C1c2ccccc2-c2nc3nnnn3nc21	98.7 nM	239 nM	> 10000 nM
Nc1ccc2nc(-c3cccc(-c4nc5ccc(N)cc5s4)c3)sc2c1	995 nM	283 nM	> 100000 nM
COc1ccc(N2C(=O)C3C(C2=O)C2(c4ccccc4)C(=O)C3(c3ccccc3)C(c3ccc4c(c3)OCO4)=C2c2ccc3c(c2)OCO3)c([N+](=O)[O-])c1 (configuration not stated)	938 nM	1160 nM	> 100000 nM
CCCCCCCCCCCC(=O)Oc1ccccc1-c1nc2ccccn2c1NC(C)(C)CC(C)(C)C	93.6 nM	1260 nM	> 10000 nM
COc1ccc(OCC(=O)Nc2cccc(-c3nc4ncccc4o3)c2)cc1	935 nM	1470 nM	> 100000 nM
CCCCCc1ccc(C(=O)Oc2ccccc2-c2nc3cc(C)ccn3c2NC(C)(C)CC(C)(C)C)cc1	93.4 nM	739 nM	> 10000 nM
Cc1cccc(NC(=O)c2sc3nc4c(c(-c5cccs5)c3c2N)CCCCC4)c1	995 nM	> 12500 nM	> 100000 nM
O=c1c2c([nH]c3ccccc13)CCCC2	991 nM	628 nM	> 100000 nM
CC(=O)NC1=NN(C(C)=O)C(c2ccc(Br)cc2)S1 (configuration not stated)	976 nM	> 7540 nM	> 100000 nM
Cc1cccc(N2CCN(c3nc4ccccc4c4nnc(C)n34)CC2)c1C	943 nM	4400 nM	> 100000 nM
COc1cc(NC(C)CCCN(Cc2ccc(N(C)C)cc2)C(=O)C(Cl)Cl)c2ncccc2c1 (configuration not stated)	66.6 nM	948 nM	> 6790 nM
Cc1ccc(NC(=O)C2CSC(c3cccc(F)c3)N2C(=O)c2ccc(C(C)(C)C)cc2)cc1C (configuration not stated)	8 nM	604 nM	848 nM
N#Cc1c(N)nc(SCC(=O)c2ccc(Br)cc2)c(C#N)c1-c1ccccc1	560 nM	581 nM	> 56600 nM
COc1ccc(OC)c(-c2ccc(O)c(CNC3CCCCCC3)c2)c1	97.5 nM	364 nM	> 10000 nM
O=C(N/C(=C/C=C/c1ccccc1)C(=O)N1CCOCC1)c1ccccc1	98.5 nM	> 1250 nM	> 10000 nM
O=C(O)c1ccc2c(c1)N=CN(C1CCCCC1)C2	98.3 nM	268 nM	> 10000 nM
C=Cc1cc2ccccc2c2cc3c(cc12)C[N+](C)(C)C3	974 nM	654 nM	> 100000 nM
CCCCN(CCCC)S(=O)(=O)c1ccc(NC(=O)c2ccco2)cc1	637 nM	1420 nM	> 65700 nM

— ChEMBL document CHEMBL1156829 (Proc Natl Acad Sci U S A, 2008)
